# Reference: US20060094695A1, “Hypoestoxides, derivatives and agonists thereof for use in the prophylaxis and treatment of obesity” (Paraquest, Inc., priority 2004, published 2006)
# Assays:
# C57BL/6J-Lep^ob mice [1] = test: Prevention of Obesity in Mice (Table 1); format: in vivo; details: 4-week-old female mice, in g
# Method: The ability of hypoestoxides and hypoestes rosea dried leaf powder to prevent obesity was studied. Hypoestoxide and hypoestes rosea dried leaf powder was administered to C57BL/6J-Lep^ob mice. The mice are homozygous for the obese spontaneous mutation and are first recognizable as such at approximately 4 weeks of age. At 4 weeks, the mice weigh 20-25 grams, and may reach three to four times the weight of wild-type mice. Three 4-week-old female mice were placed in each of four treatment conditions, for a total of twelve mice in the study: (i) control; (ii) hypoestoxide was administered orally at a dose of 10 mg/kg; (iii) hypoestoxide was administered orally at a dose of 100 mg/kg; or (iv) hypoestes dried leaf powder was administered orally at a dose of 100 mg/kg. Treatments were administered once a day and the study continued for 21 days.
# C57BL/6J-Lep^ob mice [2] = test: Treatment of Obesity in Mice (Table 2); format: in vivo; details: 10 mg/kg orally once a day for 50 days, approx. 4 months old, one mouse
# Method: Treatment of obesity with hypoestoxide and hypoestes rosea dried leaf powder was also studied. Hypoestoxide and hypoestes rosea dried leaf powder was administered to C57BL/6J-Lep^ob mice. The mice were treated at approximately 4 months of age at a weight of approximately 50 grams. One mouse was placed in each of three treatment conditions: (i) control; (ii) hypoestoxide was administered orally at a dose of 10 mg/kg; or (iii) hypoestes dried leaf powder was administered orally at a dose of 100 mg/kg. Treatments were administered once a day, with hypoestoxide treatment lasting 50 days and hypoestes dried leaf powder treatment lasting 21 days.
compound,measurement,setting,value
"C=C1C(=O)C[C@H]2C[C@@H]3O[C@@]3(C)CC[C@@H]3O[C@@]3(C)C[C@@H](OC(C)=O)[C@H]1C2(C)C [Hypoestoxide, hypoestoxide]","weight of mice, Prevention of Obesity in Mice",C57BL/6J-Lep^ob mice [1]; 10 mg/kg orally once a day for 21 days,41.6 ± 2.0
same,"weight of mice, Prevention of Obesity in Mice",C57BL/6J-Lep^ob mice [1]; 100 mg/kg orally once a day for 21 days,40.0 ± 1.5
same,"weight of mice, Prevention of Obesity in Mice","C57BL/6J-Lep^ob mice [1]; day 7, 10 mg/kg orally once a day for 21 days",19.6 ± 2.0
same,"weight of mice, Prevention of Obesity in Mice","C57BL/6J-Lep^ob mice [1]; day 7, 100 mg/kg orally once a day for 21 days",20.9 ± 1.2
same,"weight of mice, Prevention of Obesity in Mice","C57BL/6J-Lep^ob mice [1]; day 14, 10 mg/kg orally once a day for 21 days",25.4 ± 1.6
same,"weight of mice, Prevention of Obesity in Mice","C57BL/6J-Lep^ob mice [1]; day 14, 100 mg/kg orally once a day for 21 days",23.8 ± 0.6
same,"weight of mice, Prevention of Obesity in Mice","C57BL/6J-Lep^ob mice [1]; day 21, 10 mg/kg orally once a day for 21 days",27.5 ± 1.5
same,"weight of mice, Prevention of Obesity in Mice","C57BL/6J-Lep^ob mice [1]; day 21, 100 mg/kg orally once a day for 21 days",27.0 ± 0.8
same,"weight of mice, Prevention of Obesity in Mice","C57BL/6J-Lep^ob mice [1]; day 28, 10 mg/kg orally once a day for 21 days",28.8 ± 2.3
same,"weight of mice, Prevention of Obesity in Mice","C57BL/6J-Lep^ob mice [1]; day 28, 100 mg/kg orally once a day for 21 days",26.4 ± 2.2
same,"weight of mice, Prevention of Obesity in Mice","C57BL/6J-Lep^ob mice [1]; day 35, 10 mg/kg orally once a day for 21 days",30.3 ± 3.2
same,"weight of mice, Prevention of Obesity in Mice","C57BL/6J-Lep^ob mice [1]; day 35, 100 mg/kg orally once a day for 21 days",29.0 ± 2.9
same,"weight of mice, Prevention of Obesity in Mice","C57BL/6J-Lep^ob mice [1]; day −1 (before treatment), group 10 mg/kg orally once a day for 21 days",21.0 ± 1.4
same,"weight of mice, Prevention of Obesity in Mice","C57BL/6J-Lep^ob mice [1]; day −1 (before treatment), group 100 mg/kg orally once a day for 21 days",24.3 ± 1.1
same,"weight of mouse, Treatment of Obesity in Mice",C57BL/6J-Lep^ob mice [2]; day 7,53 g
same,"weight of mouse, Treatment of Obesity in Mice",C57BL/6J-Lep^ob mice [2]; day 14,51.5 g
same,"weight of mouse, Treatment of Obesity in Mice",C57BL/6J-Lep^ob mice [2]; day 21,51 g
same,"weight of mouse, Treatment of Obesity in Mice",C57BL/6J-Lep^ob mice [2]; day 28,50.4 g
same,"weight of mouse, Treatment of Obesity in Mice",C57BL/6J-Lep^ob mice [2]; day 35,50 g
same,"weight of mouse, Treatment of Obesity in Mice",C57BL/6J-Lep^ob mice [2]; day 160,69.8 g
same,"weight of mouse, Treatment of Obesity in Mice",C57BL/6J-Lep^ob mice [2]; day −1 (before treatment),53 g
